18 molecules from publication PMC8894010, “Synthesis, Carbonic Anhydrase II/IX/XII Inhibition, DFT, and Molecular Docking Studies of Hydrazide-Sulfonamide Hybrids of 4-Methylsalicyl- and Acyl-Substituted Hydrazide” (BioMed Research International, 2022) can be followed below.

Structures are written as SMILES.

Data set [1] concerns the target CA II (Homo sapiens, UniProt P00918). In words: Carbonic anhydrase inhibition assay (p-nitrophenyl acetate hydrolysis, colorimetric, 348 nm).
Method: Carbonic anhydrase inhibition activity was carried out using an already developed method [19] with slight modification. The principle of the current method is centered on that “CA hydrolyses the p-nitrophenyl acetate to p-nitrophenol” which is determined by spectrophotometrically. Reaction mixture contained 60 μL of 50 mM Tris-sulfate buffer (pH 7.6 containing 0.1 mM ZnCl2) and 10 μL (0.5 mM) test compound in 1% DMSO. […] Preparation of p-nitrophenyl acetate was done by taking 6 mM stock using <5% acetonitrile in buffer and was used fresh. Each well was filled with 20 μL solution to attain 0.6 mM concentration. The total reaction volume was made to 100 μL.
The target in data set [2] is CA XII (Homo sapiens, UniProt O43570). Described as above. As to conditions: for CAXII % inhibition: given instead of Ki where inhibition <50%, test compound 10 μL (0.5 mM), b52 says 1.0 mM.
For data set [3], the target named is T1, CA IX (Homo sapiens, UniProt Q16790).
T1 construct: His-tag; made in house
The description is as above. The class given is biochemical. To be noted: mean of three independent experiments ± SEM; pH 7.6; read-out: CAIX Ki (μM ± SEM). The protocol:
All three isozymes, CA II, CA IX, and CA XII, were produced using the same protocol done for each. Transformation was the first step to be done in which the plasmids and the off-spark plasmids of CA II, CA IX, and CA XII were transformed into competent E. coli bacteria using the heat shock method, cells were grown in agar, then a colony was selected for further growth in LB broth, cells were collected by centrifugation according to the methods described in [25], and the plasmid was extracted according to the kit protocol using SanPrep column plasmid miniprep kit obtained from Sangon Biotech. […] Six hours later, the media were aspirated, and the fresh prepared (+10% FBS and 1% pen/strep) media were added to the cells. On the next day, the cells were inspected for their viability, and new media were used for the selection process which were DMEM, FBS, and hygromycin B using a final concentration of 200 μg/mL. The cells were grown in the selective media, and when they reached 70 to 80% confluency, the offs-park plasmid transfected cells were checked under a fluorescent microscope to insure the production of the protein; then, the cells transfected with the His-tagged plasmid were collected for making the cell lysate following the method described by by centrifugation of the cells at 2000 rpm for 5 minutes, washed with PBS, and again centrifuged; the pellet was then suspended in the cell lysis buffer, incubated in ice for 15 minutes, and centrifuged again at 10000 g at 4°C for 15 minutes, and here, the pellet was discarded and the supernatant was collected for purification using Ni-NTA Sepharose column according to the manufacturer's protocol. And the eluting solution was quantified using the protein quantification technique Biuret assay and Bradford reagent for protein quantification.
Carbonic anhydrase inhibition activity was carried out using an already developed method with slight modification. The principle of the current method is centered on that “CA hydrolyses the p-nitrophenyl acetate to p-nitrophenol” which is determined by spectrophotometrically. Reaction mixture contained 60 μL of 50 mM Tris-sulfate buffer (pH 7.6 containing 0.1 mM ZnCl2) and 10 μL (0.5 mM) test compound in 1% DMSO. […] Preparation of p-nitrophenyl acetate was done by taking 6 mM stock using <5% acetonitrile in buffer and was used fresh. Each well was filled with 20 μL solution to attain […] concentration. The total reaction volume was made to 100 μL.

Sequence of CA XII (O43570 25-354): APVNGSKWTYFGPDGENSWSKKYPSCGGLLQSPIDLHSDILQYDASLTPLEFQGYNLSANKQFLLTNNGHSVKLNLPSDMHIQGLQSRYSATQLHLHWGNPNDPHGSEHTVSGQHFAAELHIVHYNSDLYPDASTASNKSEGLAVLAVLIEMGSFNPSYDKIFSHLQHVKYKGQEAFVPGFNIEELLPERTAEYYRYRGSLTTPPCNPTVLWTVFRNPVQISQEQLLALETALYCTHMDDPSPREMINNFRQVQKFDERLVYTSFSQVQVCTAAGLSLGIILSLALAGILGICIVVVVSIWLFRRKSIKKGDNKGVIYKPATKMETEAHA

`COc1cccc(CC(=O)NNS(=O)(=O)c2ccc3ccccc3c2)c1` [Compound 36, N′-(2-(3-Methoxyphenyl)acetyl)naphthalene-2-sulfonohydrazide] displayed a melting point of 139 to 141 °C. Besides, the affinity in data set [1] corresponds to a Ki of 920 ± 100 nM. Also, the CAXII % inhibition in data set [2] worked out at 48.88%. Besides, the Ki in data set [3] stood at 0.6 ± 0.01 µM.

Consider `COc1ccc(S(=O)(=O)NNC(=O)c2ccc(C)cc2OC)cc1` [Compound 21, 4-Methoxy-N′-(2-methoxy-4-methylbenzoyl)benzenesulfono hydrazide], for which the melting point lay within 159 to 162 °C. Moreover, the Ki in data set [1] came to 610 ± 10 nM. In data set [2], this molecule showed a Ki of 1220 ± 10 nM. For the same molecule, the Ki in data set [3] was 0.19 ± 0.02 µM.

`COc1cccc(CC(=O)NNS(=O)(=O)c2ccc([N+](=O)[O-])cc2)c1` [Compound 32, N′-(2-(3-Methoxyphenyl)acetyl)-4-nitrobenzenesulfonohydrazide] came in with a melting point of 158 to 159 °C. In data set [1], the Ki came to 670 ± 60 nM. The CAXII % inhibition in data set [2] turned out to be 49.25%. In data set [3], the inhibitory constant (Ki) stood at 0.32 ± 0.01 µM.

For the molecule `COc1cc(C)ccc1C(=O)NNS(=O)(=O)c1ccc(C)cc1` [Compound 22, N′-(2-Methoxy-4-methylbenzoyl)-4-methylbenzenesulfonohydrazide], the melting point lay within 161 to 163 °C. This molecule showed a Ki in data set [1] of 680 ± 10 nM. In addition, the CAXII % inhibition in data set [2] amounted to 42.89%. Further, in data set [3], the Ki worked out at 1.04 ± 0.38 µM.

With `COc1cc(C)ccc1C(=O)NNS(=O)(=O)c1ccc(Br)cc1` [Compound 20, 4-Bromo-N′-(2-methoxy-4-methylbenzoyl)benzenesulfonohydrazide], the melting point lay in the range of 168 to 169 °C. Also, the affinity in data set [1], expressed as Ki, was 660 ± 40 nM. This molecule yielded a Ki in data set [2] of 990 ± 100 nM. In addition, the Ki in data set [3] was found to be 0.56 ± 0.05 µM.

Take `Cc1ccc(S(=O)(=O)NNC(=O)c2ccc(C)cc2O)cc1` [Compound 27, N′-(2-Hydroxy-4-methylbenzoyl)-4-methylbenzenesulfonohydrazide]: the melting point is 183 to 185 °C. This molecule also returned a Ki in data set [1] of 1110 ± 40 nM. The molecule also gave a Ki in data set [2] of 430 ± 80 nM. Further, the Ki in data set [3] stood at 0.51 ± 0.04 µM.

Take `Cc1ccc(CC(=O)NNS(=O)(=O)c2ccc(Br)cc2)cc1` [Compound 29, 4-Bromo-N′-(2-(p-tolyl)acetyl)benzenesulfonohydrazide]: the melting point is 156 to 157 °C. The same molecule had a Ki in data set [1] of 730 ± 20 nM. Moreover, the affinity in data set [2] corresponds to a Ki of 550 ± 10 nM. The Ki in data set [3] came out at 0.33 ± 0.02 µM.

In the case of `Cc1ccc(CC(=O)NNS(=O)(=O)c2ccc([N+](=O)[O-])cc2)cc1` [Compound 28, 4-Nitro-N′-(2-(p-tolyl)acetyl)benzenesulfonohydrazide], the melting point was in the range of 205 to 206 °C. The molecule further yielded a Ki in data set [1] of 460 ± 10 nM. Further, in data set [2], the Ki was 1020 ± 80 nM. For the same molecule, the Ki in data set [3] was found to be 0.55 ± 0.01 µM.

On to `COc1ccc(S(=O)(=O)NNC(=O)Cc2cccc(OC)c2)cc1` [Compound 34, 4-Methoxy-N′-(2-(3-methoxyphenyl)acetyl)benzenesulfonohydrazide], for which the melting point lay within 146 to 147 °C. In data set [1], this molecule displayed a Ki of 1810 ± 30 nM. In data set [2], the Ki turned out to be 220 ± 60 nM. The Ki in data set [3] stood at 0.65 ± 0.03 µM.

Consider `Cc1ccc(C(=O)NNS(=O)(=O)c2ccc([N+](=O)[O-])cc2)c(O)c1` [Compound 24, N′-(2-Hydroxy-4-methylbenzoyl)-4-nitrobenzenesulfonohydrazide], for which the melting point lay within 211 to 213 °C. The molecule further showed a Ki in data set [1] of 340 ± 10 nM. The molecule also returned a Ki in data set [2] of 520 ± 40 nM. Also, the Ki in data set [3] stood at 0.54 ± 0.06 µM.

On to `COc1cccc(CC(=O)NNS(=O)(=O)c2ccc(Br)cc2)c1` [Compound 33, 4-Bromo-N′-(2-(3-methoxyphenyl)acetyl)benzenesulfonohydrazide], for which the melting point was 153 to 154 °C. This molecule also registered a Ki in data set [1] of 680 ± 50 nM. In data set [2], the Ki was 170 ± 10 nM. In addition, the Ki in data set [3] turned out to be 0.39 ± 0.03 µM.

For the molecule `COc1ccc(S(=O)(=O)NNC(=O)c2ccc(C)cc2O)cc1` [Compound 26, N′-(2-Hydroxy-4-methylbenzoyl)-4-methoxybenzenesulfono hydrazide], the melting point is 168 to 169 °C. For the same molecule, affinity in data set [1] was put at a Ki of 960 ± 90 nM. Moreover, the Ki in data set [2] was 580 ± 40 nM. Moreover, the Ki in data set [3] was found to be 0.91 ± 0.09 µM.

`COc1cc(C)ccc1C(=O)NNS(=O)(=O)c1ccc2ccccc2c1` [Compound 23, N′-(2-Methoxy-4-methylbenzoyl)naphthalene-2-sulfonohydrazide] yielded a melting point of 186 to 187 °C. For the same molecule, affinity in data set [1] was put at a Ki of 940 ± 20 nM. In data set [2], the Ki was 750 ± 70 nM. Also, in data set [3], the Ki was 0.19 ± 0.03 µM.

On to `COc1cc(C)ccc1C(=O)NNS(=O)(=O)c1ccc([N+](=O)[O-])cc1` [Compound 19, N′-(2-Methoxy-4-methylbenzoyl)-4-nitrobenzenesulfonohydrazide], for which the melting point lay within 220 to 222 °C. The molecule further displayed a Ki in data set [1] of 680 ± 20 nM. The molecule also gave a CAXII % inhibition in data set [2] of 44.4%. For the same molecule, the Ki in data set [3] came to 0.58 ± 0.04 µM.

In the case of `Cc1ccc(CC(=O)NNS(=O)(=O)c2ccc(C)cc2)cc1` [Compound 31, 4-Methyl-N′-(2-(p-tolyl)acetyl)benzenesulfonohydrazide], the melting point fell in the range of 143 to 144 °C. In addition, the Ki in data set [1] is 670 ± 10 nM. In data set [2], this molecule displayed an inhibition constant (Ki) of 400 ± 90 nM. Moreover, the Ki in data set [3] turned out to be 0.29 ± 0.02 µM.

In the case of `Cc1ccc(C(=O)NNS(=O)(=O)c2ccc(Br)cc2)c(O)c1` [Compound 25, 4-Bromo-N′-(2-hydroxy-4-methylbenzoyl)benzenesulfonohydrazide], the Ki in data set [1] was 910 ± 20 nM; in data set [2], 350 ± 40 nM; in data set [3], 0.33 ± 0.03 µM.

For `COc1ccc(S(=O)(=O)NNC(=O)Cc2ccc(C)cc2)cc1` [Compound 30, 4-Methoxy-N′-(2-(p-tolyl)acetyl)benzenesulfonohydrazide], the melting point fell in the range of 133 to 134 °C. Further, the Ki in data set [1] came to 740 ± 40 nM. Besides, in data set [2], the Ki is 130 ± 10 nM. Moreover, the inhibitory constant (Ki) in data set [3] was determined as 0.33 ± 0.03 µM.

Take `COc1cccc(CC(=O)NNS(=O)(=O)c2ccc(C)cc2)c1` [Compound 35, N′-(2-(3-Methoxyphenyl)acetyl)-4-methylbenzenesulfonohydrazide]: the melting point was in the range of 143 to 144 °C. For the same molecule, in data set [1], the affinity, expressed as Ki, was 3200 ± 140 nM. In data set [2], this molecule came in with a Ki of 340 ± 10 nM. Besides, the Ki in data set [3] is 1.18 ± 0.04 µM.

The Ki is a dissociation constant, usually derived from enzyme kinetics or from competition with a known ligand. A word on the melting point: it is the temperature, or range, at which the solid turns liquid.
